Measured values published in US20170066797A1, “WITHAFERIN A ANALOGS AND USES THEREOF” (Whitehead Institute for Biomedical Research, priority 2008, published 2017).

Columns and labels:
[1] = test system: Ewing's sarcoma cells (CHP-100); settings: 72 hours, MTT, FIG. 5
Text: Relative viable cell number was quantified by MTT assay. Results are presented as a percentage compared to wells exposed to DMSO alone. […] Points: mean of triplicate determinations; Error bars: s.d.

[2] = test system: primary astrocytes / primary neurons co-culture; test: Glutathione depletion astrocyte-neuron co-culture model (HCA, MAP-2 readout); type: cell-based, rat; settings: astrocytes pre-treated 24 h, then 5 mM homocysteic acid 48 h, FIG. 14
Method: FIGS. 14A and 14B. (A) Withaferin A (WA) mediates astrocyte-dependent neuronal protection. Primary astrocytes cultured from the cerebral cortices of postnatal rat pups, were treated with WA for 24 h, and were washed with serum-containing media to completely remove WA from the culture media. […] 48 h later neuronal viability was assessed by quantifying the neuronal marker MAP-2. (B) WA-mediated neuroprotection from oxidative stress.
WA was tested in a second model for neuroprotection that utilizes primary astrocytes cultured from the cerebral cortices of postnatal day 1-3 rat pups. In the CNS, astrocytes play a pivotal role in protecting neurons from oxidative stress, a hallmark of nearly all neurodegenerative diseases and disorders. […]
In this assay, which is summarized in FIG. 13, primary astrocytes were isolated from the cerebral cortices of postnatal day 1-3 rat pups, allowed to grow to confluency for ˜2 weeks, and then treated with test compound for 24 h. […] Quantification of the neuron-specific protein microtubule-associated protein-2 (MAP-2) is used to monitor neuronal specific death in this astrocyte-neuron co-culture model as described previously (Carrier et al., J. Neuroscience Methods, 154: 239-244.2006). […] HRP activity is then measured using a reaction buffer containing 150 uM amplex red (Molecular Probes) and 800 uM hydrogen peroxide (Sigma). […]

[3] = test system: minimal heat shock response element derived from the promoter region of the Hsp70B gene; test: Heat shock reporter (EGFP) induction; type: cell-based; settings: overnight exposure, FIG. 8
Method: FIG. 8. Heat shock reporter induction measured by micro plate fluorimeter. Reporter cells stably transduced with a plasmid encoding enhanced green fluorescent protein (EGFP) under the control of a minimal heat shock response element were exposed to 2,3-dihydrowithaferin A-3β-O-sulfate (WA-SO4) or withaferin A (WA) at the indicated concentrations overnight. Relative fluorescence units (RFU) per well were determined as a measure of reporter activation. Each point represents the mean of nine determinations from three independent experiments.
Immortalized mouse embryo fibroblasts derived from homozygous Hsf1 knockout mice or their wild type littermates were exposed overnight to equitoxic concentrations of 1 or the known heat shock-inducing Hsp90 inhibitor gendanamycin. Whole cell lysates were prepared in non-ionic detergent buffer and immunoblotted for relative levels of Hsp72, a highly inducible member of the Hsp70 family of molecular chaperones, using monoclonal antibody C92F3A-5 (StressMarq Biosciences, Victoria, BC). Reactivity was detected using peroxidase-conjugated secondary antibody and chemiluminescent detection. To evaluate the relative ability of compounds to induce a heat shock response at the transcriptional level, a reporter cell line was used as previously described (Turbyville, et al., J. Nat. Prod. (2006) 69: 178-184, incorporated herein by reference). […]

Annexin 2 = target: T1, Annexin 2 (Homo sapiens, UniProt P07355); test: Pull-down with biotinylated withaferin A on NeutrAvidin beads with competition; type: binding; settings: competition with WA 40 μM, 36 kDa band, FIG. 11
T1 construct: incubated with pre-cleared whole cell extract that had been previously supplemented with WA (40 μM) or an equal volume of DMSO; endogenous in cells
T1 sequence (P07355 whole entry, species assumed): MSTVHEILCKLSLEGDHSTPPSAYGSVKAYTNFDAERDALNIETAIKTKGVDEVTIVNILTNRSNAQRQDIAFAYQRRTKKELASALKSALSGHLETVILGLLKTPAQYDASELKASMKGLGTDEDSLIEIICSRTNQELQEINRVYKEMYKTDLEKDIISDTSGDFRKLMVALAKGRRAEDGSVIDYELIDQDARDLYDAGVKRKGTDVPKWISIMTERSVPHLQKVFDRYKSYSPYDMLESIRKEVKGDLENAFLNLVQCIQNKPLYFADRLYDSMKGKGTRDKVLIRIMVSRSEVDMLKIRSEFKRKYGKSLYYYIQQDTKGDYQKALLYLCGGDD
Method: FIG. 11. Stable and specific binding of Annexin 2 by withaferin A. Biotinylated withaferin A (WA) was captured on NeutrAvidin (NA)-coated beads and incubated with pre-cleared whole cell extract that had been previously supplemented with WA (40 μM) or an equal volume of DMSO. After low stringency washes, proteins bound to beads were eluted, size fractioned by SDS-PAGE, stained with Sypro Ruby, and visualized by UV illumination. The arrowhead indicates the position of a 36 kDa band effectively competed away by WA. Pre-clear lane: Proteins in whole cell extract that bound non-specifically to NA beads alone (no immobilized WA present) during pre-clearing incubation.

Hsp72, Hsp27 = test: Heat-shock protein induction in organs after IP administration; type: in vivo, mice; settings: IP 18 mg/kg/day, 16 hours after last injection, FIG. 10
Method: FIG. 10. Heat-shock protein induction following Withaferin A (WA) administration to mice. WA was formulated in DMSO/Cremophor/Saline vehicle and injected intraperitoneally (IP) at a total dose of 18 mg/kg/day, either as a single injection (WA ×1) or divided in two 9 mg/kg injections (WA ×2) spaced 6 hrs apart. Control animals received an equal volume of vehicle alone as a single injection. Mice were sacrificed 16 hours after the last injection, organs harvested and protein lysates prepared for immunoblotting. Equal loading of samples was confirmed by staining membranes for total protein (left panels). The relative tissue levels of Hsp72, Hsp27 and Annexin 2 (a putative target of Withaferin A) were determined by probing with specific antibodies as indicated. Note the robust induction of heat shock protein levels in spleen (Annexin 2 positive), but not normal brain (Annexin 2 negative) associated with prior Withaferin A exposure.

With `CC1=C(CO)C(=O)OC([C@@H](C)C2CCC3C4C[C@H]5O[C@]56[C@@H](O)C=CC(=O)[C@]6(C)C4CC[C@@]32C)C1` (stereo partly drawn) [Withaferin A] the “inhibition of tumor cell growth in vitro, CHP-100” value [1] was “inhibit tumor growth in Ewing's sarcoma”, the “astrocyte-dependent protection of neurons from oxidative stress (MAP-2)” value [2] was “enhance the protection of neurons exposed to oxidative stress” and the “heat shock reporter induction” value [3] was “response can be induced at compound exposures compatible with cell survival”. For the same compound, the “binding to annexin II” value (Annexin 2) was “binds stably and selectively to annexin II”, the “heat shock response induction in brain” value (Hsp72, Hsp27; annexin II absent) was “not in brain cells” and the “heat shock response induction in spleen” value (Hsp72, Hsp27; annexin II present) was “induces the heat shock response in spleen cells”.
